US8927550B2, “Heterocyclic compounds as CCR1 receptor antagonists” (Boehringer Ingelheim International GmbH, priority 2009, dated 2015)

Legend:
CCR1 [1] = biological target: T1, CCR1 (Homo sapiens, UniProt P32246); test: Calcium flux in CCR1 transfected cells, Method A (Fluo-4 NW dye, FLIPR TETRA), MIP-1 alpha at EC80; type: cell-based; details: cells stably expressing recombinant CCR1 and G-alpha-16, 1 hour at room temperature
T1 construct: host or cells: Non-adherent cells
T1 sequence (P32246 1-355): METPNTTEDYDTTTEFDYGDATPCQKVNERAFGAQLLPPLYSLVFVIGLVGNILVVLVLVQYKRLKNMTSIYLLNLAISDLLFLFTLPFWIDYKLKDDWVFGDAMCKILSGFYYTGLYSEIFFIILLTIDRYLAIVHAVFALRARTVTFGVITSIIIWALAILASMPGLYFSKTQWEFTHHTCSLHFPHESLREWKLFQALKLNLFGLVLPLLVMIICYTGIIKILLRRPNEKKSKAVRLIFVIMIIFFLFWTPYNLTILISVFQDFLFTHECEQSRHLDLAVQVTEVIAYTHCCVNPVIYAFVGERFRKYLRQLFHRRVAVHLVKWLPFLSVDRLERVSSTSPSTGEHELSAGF
Experimental: (§1) Compounds are assessed for the ability to block the interaction of CCR1 and MIP-1α in a functional cellular assay measuring calcium flux in CCR1 transfected cells.
Method A: Non-adherent cells purchased from Chemicon Corporation (HTS005C), stably expressing recombinant CCR1 and G-alpha-16 are grown in RPMI 1640 medium (Mediatech 10-080-CM) supplemented with 10% heat-inactivated FBS, 0.4 mg/mL Geneticin and penicillin/streptomycin. On the day of the assay, the cells are transferred to a beaker and dye-loaded in bulk using a Fluo-4 NW Calcium Assay Kit with probenecid (Invitrogen F36205) at 0.8E6 cells/mL for 1 hour at room temperature. After 1 hour, they are seeded in a 384-well tissue culture-treated plate at a density of 20,000 cells/well. Appropriately diluted test compound is added to the well to achieve a top concentration of 3,000 nM (diluted 4-fold with 10 doses total). The final concentration of DMSO is 1%. The buffer is HBSS (Invitrogen 14025) with 20 mM HEPES at pH 7.4. The cells are allowed to incubate 1 hour in the dark at room temperature. The plates are transferred to the FLIPR TETRA where MIP-1 alpha in 1% BSA is added at the EC80 final concentration. Wells+/−MIP-1 alpha containing diluted DMSO instead of compound serve as the controls. Intracellular calcium flux is recorded on the FLIPR TETRA, using excitation at 470/495 nm and emission at 515/575 nm. Data are analyzed using Activity Base software.

CCR1 [2] = biological target: T1, CCR1; test: Calcium flux in CCR1 transfected cells, Method B (Calcium 4 dye, HAMAMATSU FDSS6000), MIP-1alpha at EC80; type: cell-based; details: cells stably expressing recombinant CCR1 and G-alpha-16, 30 minutes at 37 C then 30 minutes at room temperature
Experimental: as §1
Method B: Non-adherent cells purchased from Chemicon Corporation (HTS005C), stably expressing recombinant CCR1 and G-alpha-16 are grown in RPMI 1640 medium (Mediatech 10-080-CM) supplemented with 10% FBS, 0.4 mg/mL Geneticin and penicillin/streptomycin. On the day of the assay, the cells are loaded with Calcium 4 dye (Molecular Devices R7448) with Probenecid (Invitrogen P346400) at 8E5 cells/mL for 1 hour at room temperature. After 1 hour, they are seeded in a 384-well tissue culture-treated plate at a density of 20,000 cells/well. Appropriately diluted test compound is added to the well to achieve a top concentration of 3,000 nM (diluted 4-fold with 10 doses total). The final concentration of DMSO is 1%. The buffer is HBSS (Invitrogen 14025) with 20 mM HEPES at pH 7.4. The cells incubate 30 minutes at 37 C and then 30 minutes at room temperature. The plates are transferred to the HAMAMATSU FDSS6000 where MIP-1alpha in 1% BSA is added at the EC80 final concentration. All plates must be read within 4 hours of the start of dye-loading. Wells+/−MIP-1alpha containing diluted DMSO instead of compound serve as the controls. Data are analyzed using Activity Base software.

Row | IC50 (CCR1 [1]) [nM] | IC50 (CCR1 [2]) [nM] | SMILES
1 | 810 | – | O=C(NCc1cccc(C(F)(F)F)c1)c1cccn2c(-c3ccc(Cl)c(Cl)c3)ncc12 [3-(3,4-Dichlorophenyl)-imidazo[1,5-a]pyridine-8-carboxylic acid 3-trifluoromethyl-benzylamide]
2 | 568 | – | CS(=O)(=O)c1ccc(CNC(=O)c2cccn3c(-c4ccc(F)cc4)ncc23)cn1 [3-(4-Fluorophenyl)-imidazo[1,5-a]pyridine-8-carboxylic acid (6-methanesulfonyl-pyridin-3-ylmethyl)-amide]
3 | 18 | – | O=C(NCc1cccc(C(F)(F)F)c1)c1cccn2c(-c3ccc(F)cc3)ncc12 [3-(4-Fluorophenyl)-imidazo[1,5-a]pyridine-8-carboxylic acid 3-trifluoromethyl-benzylamide]
4 | 285 | – | CS(=O)(=O)c1cc(CNC(=O)c2cccn3c(-c4ccc(F)cc4)ncc23)ccn1 [3-(4-Fluorophenyl)-imidazo[1,5-a]pyridine-8-carboxylic acid (2-methanesulfonyl-pyridin-4-ylmethyl)-amide]
5 | 7 | – | CCCC(NC(=O)c1cccn2c(-c3ccc(F)cc3)ncc12)c1ccc(S(C)(=O)=O)nc1 (stereo not shown) [3-(4-Fluorophenyl)-imidazo[1,5-a]pyridine-8-carboxylic acid [1-(6-methanesulfonyl-pyridin-3-yl)-butyl]-amide]
6 | 11 | – | O=C(NCc1ccnc(Br)c1)c1cccn2c(-c3ccc(F)cc3)ncc12 [3-(4-Fluorophenyl)-imidazo[1,5-a]pyridine-8-carboxylic acid (2-bromopyridin-4-ylmethyl)-amide]
7 | – | 1400 | CNS(=O)(=O)c1ccc(CNC(=O)c2cc(O)cc3c2ccn3-c2ccc(F)cc2)cc1 [1-(4-Fluorophenyl)-6-hydroxy-1H-indole-4-carboxylic acid 4-methylsulfamoyl-benzylamide]
8 | – | 455 | CS(=O)(=O)c1cc(CNC(=O)c2cncc3c2ccn3-c2ccc(F)cc2)ccn1 [1-(4-Fluorophenyl)-1H-pyrrolo[2,3-c]pyridine-4-carboxylic acid (2-methanesulfonyl-pyridin-4-ylmethyl)-amide]
9 | – | 19 | CC[C@H](NC(=O)c1cccc2c(-c3ccc(F)cc3)ncn12)c1ccc(S(C)(=O)=O)nc1 [1-(4-Fluorophenyl)-imidazo[1,5-a]pyridine-5-carboxylic acid [(S)-1-(6-methanesulfonyl-pyridin-3-yl)-propyl]-amide]
10 | – | 1340 | CC[C@H](NC(=O)c1cccn2c(-c3ccc(F)cc3)cnc12)c1ccc(Br)nc1 [3-(4-Fluorophenyl)-imidazo[1,2-a]pyridine-8-carboxylic acid [(S)-1-(6-bromopyridin-3-yl)-propyl]-amide]
11 | – | 2 | CC[C@H](NC(=O)c1cncc2c1ccn2-c1ccc(F)cc1)c1cncc(S(C)(=O)=O)c1 [1-(4-Fluorophenyl)-1H-pyrrolo[2,3-c]pyridine-4-carboxylic acid [(S)-1-(5-methanesulfonyl-pyridin-3-yl)-propyl]-amide]
12 | – | 29 | CC[C@H](NC(=O)c1cccn2c(-c3ccc(F)cc3)ncc12)c1ccc(Br)nc1 [3-(4-Fluorophenyl)-imidazo[1,5-a]pyridine-8-carboxylic acid [(S)-1-(6-bromopyridin-3-yl)-propyl]-amide]
13 | – | 5 | CCC[C@H](NC(=O)c1nccn2c(-c3ccc(F)cc3)ncc12)c1ccnc(S(C)(=O)=O)c1 [3-(4-Fluorophenyl)-imidazo[1,5-a]pyrazine-8-carboxylic acid [(S)-1-(2-methanesulfonyl-pyridin-4-yl)-butyl]-amide]
14 | – | 0.8 | CS(=O)(=O)c1cc(C2(NC(=O)c3cc(C#N)cc4c3ccn4-c3ccc(F)cc3)CC2)ccn1 [6-Cyano-1-(4-fluorophenyl)-1H-indole-4-carboxylic acid [1-(2-methanesulfonyl-pyridin-4-yl)-cyclopropyl]-amide]
15 | – | 565 | CS(=O)(=O)c1cccc(CNC(=O)c2cncc3c2ccn3-c2ccc(F)cc2)c1 [1-(4-Fluorophenyl)-1H-pyrrolo[2,3-c]pyridine-4-carboxylic acid 3-methanesulfonyl-benzylamide]
16 | – | 57 | C[C@H](NC(=O)c1nncc2c1cnn2-c1ccc(F)cc1)c1ccnc(S(C)(=O)=O)c1 [1-(4-Fluorophenyl)-1H-pyrazolo[3,4-d]pyridazine-4-carboxylic acid [(S)-1-(2-methanesulfonyl-pyridin-4-yl)-ethyl]-amide]
17 | – | 91 | CS(=O)(=O)c1cc(CNC(=O)c2nncc3c2cnn3-c2ccc(F)cc2)ccn1 [1-(4-Fluorophenyl)-1H-pyrazolo[3,4-d]pyridazine-4-carboxylic acid (2-methanesulfonyl-pyridin-4-ylmethyl)-amide]
18 | – | 410 | CS(=O)(=O)c1cc(C2(NC(=O)c3nccn4c(-c5ccc(F)cc5)ncc34)CC2)ccn1 [3-(4-Fluorophenyl)-imidazo[1,5-a]pyrazine-8-carboxylic acid [1-(2-methanesulfonyl-pyridin-4-yl)-cyclopropyl]-amide]
19 | 305 | – | CS(=O)(=O)c1cccc(CNC(=O)c2cccn3c(-c4ccc(F)cc4)ncc23)c1 [3-(4-Fluorophenyl)-imidazo[1,5-a]pyridine-8-carboxylic acid 3-methanesulfonyl-benzylamide]
20 | – | 6 | CCC[C@H](NC(=O)c1nccn2c(-c3ccc(F)cc3)ncc12)c1cncc(S(C)(=O)=O)c1 [3-(4-Fluorophenyl)-imidazo[1,5-a]pyrazine-8-carboxylic acid [(S)-1-(5-methanesulfonyl-pyridin-3-yl)-butyl]-amide]
21 | – | 1100 | CC(C)(NC(=O)c1nccn2c(-c3ccc(F)cc3)ncc12)c1ccnc(Br)c1 [3-(4-Fluorophenyl)-imidazo[1,5-a]pyrazine-8-carboxylic acid [1-(2-bromopyridin-4-yl)-1-methyl-ethyl]-amide]
22 | 428 | – | O=C(NCc1ccc(Br)nc1)c1cccn2c(-c3ccc(F)cc3)ncc12 [3-(4-Fluorophenyl)-imidazo[1,5-a]pyridine-8-carboxylic acid (6-bromopyridin-3-ylmethyl)-amide]
23 | – | 2 | CS(=O)(=O)c1cccc(CNC(=O)c2cc(C#N)cc3c2ccn3-c2ccc(F)cc2)c1 [6-Cyano-1-(4-fluorophenyl)-1H-indole-4-carboxylic acid 3-methanesulfonyl-benzylamide]
24 | – | 30 | CC[C@H](NC(=O)c1nccn2c(-c3ccc(F)cc3)ncc12)c1ccnc(S(C)(=O)=O)c1 [3-(4-Fluorophenyl)-imidazo[1,5-a]pyrazine-8-carboxylic acid [(S)-1-(2-methanesulfonyl-pyridin-4-yl)-propyl]-amide]
25 | – | 44 | CC[C@H](NC(=O)c1nncc2c1cnn2-c1ccc(F)cc1)c1ccc(S(C)(=O)=O)nc1 [1-(4-Fluorophenyl)-1H-pyrazolo[3,4-d]pyridazine-4-carboxylic acid [(S)-1-(6-methanesulfonyl-pyridin-3-yl)-propyl]-amide]
